Experimental findings from PubChem BioAssay (NCI) are described below.

Among the test systems are RPMI-8226 leukemia; OVCAR-5 ovarian; HCC-2998 colon; HCT-116 colon; DU-145 prostate; TK-10 renal; IGROV1 ovarian; KM12 colon; SK-MEL-2 melanoma; U251 CNS; MALME-3M melanoma; NCI-H23 lung.
Experiment in all cases: NCI anticancer screen, dose series, 48 h

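A five-concentration, 48-hour dose response in 96-well plates underlies each endpoint, interpolated linearly between surrounding concentrations. GI50 marks 50% less growth. TGI: concentration producing complete growth inhibition.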

For `CSC1(C)C(=O)Nc2c(OCc3ccccc3)cc([N+](=O)[O-])cc21` (stereo not given), the TGI with RPMI-8226 leukemia, in the test on OVCAR-5 ovarian, with HCC-2998 colon, in the test on HCT-116 colon, with DU-145 prostate and in the test on TK-10 renal was greater than 100 µM in each case. Moreover, the TGI in the test on IGROV1 ovarian was greater than 100 µM; in the test with KM12 colon, greater than 100 µM; in the test on SK-MEL-2 melanoma it was greater than 100 µM; in the test with U251 CNS it was 37.3 µM; with MALME-3M melanoma, greater than 100 µM; with NCI-H23 lung it was greater than 100 µM.
As to `CCCCCCCCCCCC(=O)OC[C@H](C[As](=O)(O)O)OC(=O)CCCCCCCCCCC`, the TGI is greater than 76.8 µM in the test with RPMI-8226 leukemia; 32.7 µM in the test with OVCAR-5 ovarian; 22.4 µM with HCC-2998 colon; 21.7 µM in the test with HCT-116 colon; 44.2 µM in the test on DU-145 prostate; 15.1 µM with TK-10 renal. In addition, the TGI with IGROV1 ovarian turned out to be 4.07 µM; with KM12 colon, 22 µM; with SK-MEL-2 melanoma, 6.48 µM; in the test on U251 CNS, 5.15 µM; with MALME-3M melanoma it was 7.14 µM; in the test on NCI-H23 lung, 21.2 µM.
For the compound `CCOC(=O)C(NC(=O)c1ccccc1)(Nc1ccc(S(=O)(=O)Nc2ncccn2)cc1)C(F)(F)F` (stereo not given), the TGI in the test on RPMI-8226 leukemia, in the test with OVCAR-5 ovarian, in the test with HCC-2998 colon, in the test on HCT-116 colon, in the test on DU-145 prostate and with TK-10 renal was greater than 100 µM in each case. Moreover, the TGI with IGROV1 ovarian, in the test on KM12 colon, in the test on SK-MEL-2 melanoma, in the test on U251 CNS, in the test with MALME-3M melanoma and in the test on NCI-H23 lung was greater than 100 µM in each case.
`COc1ccccc1Cc1ccc(C2C=CC3(CC(=O)C=C3C)C(=O)C2)o1` (stereo not given): the TGI was 39.2 µM in the test on RPMI-8226 leukemia; greater than 100 µM in the test with OVCAR-5 ovarian; greater than 100 µM in the test on HCC-2998 colon; 89.6 µM in the test with HCT-116 colon; greater than 100 µM in the test with DU-145 prostate; greater than 100 µM in the test on TK-10 renal. Moreover, the TGI was greater than 100 µM in the test on IGROV1 ovarian; greater than 100 µM with KM12 colon; 30.8 µM with SK-MEL-2 melanoma; 30.6 µM in the test on U251 CNS; 47.5 µM in the test with MALME-3M melanoma; 58.3 µM in the test with NCI-H23 lung.
As to `CCCCn1c(CSc2ccc(Cl)cc2)c(C(=O)OCC)c2cc(OC)c(Br)cc21`, the TGI in the test with RPMI-8226 leukemia, with OVCAR-5 ovarian, in the test with HCC-2998 colon, in the test on HCT-116 colon, in the test with DU-145 prostate and in the test on TK-10 renal was greater than 100 µM throughout. In addition, the TGI in the test on IGROV1 ovarian, in the test on KM12 colon, in the test on SK-MEL-2 melanoma, with U251 CNS, in the test on MALME-3M melanoma and in the test on NCI-H23 lung was greater than 100 µM each time.
Take `CN(C)c1ccc(/C=C/c2ccc(S(N)(=O)=O)cc2)cc1`: the GI50 was 11.6 µM with RPMI-8226 leukemia; 13.4 µM in the test with IGROV1 ovarian; 8.28 µM in the test with KM12 colon; 11.2 µM in the test on U251 CNS; 14.2 µM in the test with NCI-H23 lung. Further, the TGI with RPMI-8226 leukemia was greater than 100 µM; in the test on OVCAR-5 ovarian, 53.6 µM; with HCC-2998 colon, greater than 100 µM; in the test with HCT-116 colon, 67.2 µM; in the test with DU-145 prostate it was 49.8 µM; with TK-10 renal it was 39.8 µM. Besides, the TGI in the test with IGROV1 ovarian was 33.4 µM; in the test with KM12 colon, greater than 100 µM; in the test on SK-MEL-2 melanoma it was greater than 100 µM; with U251 CNS, 31.7 µM; in the test with MALME-3M melanoma, 37.6 µM; with NCI-H23 lung it was 44 µM.
As for `CC1CN=C(NS(=O)(=O)c2cc(C(=O)Nc3ccc(Cl)cc3)c(Cl)cc2S)NN1` (stereo not given), the TGI with RPMI-8226 leukemia is 70.8 µM; with OVCAR-5 ovarian it was greater than 100 µM; in the test on HCC-2998 colon it was 49.1 µM; in the test on HCT-116 colon it was greater than 100 µM; with DU-145 prostate, greater than 100 µM; in the test on TK-10 renal, greater than 100 µM. For the same compound, the TGI in the test on IGROV1 ovarian was greater than 100 µM; in the test on KM12 colon, 97.1 µM; with SK-MEL-2 melanoma, 71.2 µM; with U251 CNS, greater than 100 µM; in the test on MALME-3M melanoma, 39.1 µM; in the test on NCI-H23 lung, greater than 100 µM.
In the case of `COc1cc2c(c(OC)c1OC)C(=O)[C@@H]1[C@H]2N1C(=O)NCCCl`, the TGI in the test with RPMI-8226 leukemia, in the test on OVCAR-5 ovarian, in the test with HCC-2998 colon, in the test with HCT-116 colon, with DU-145 prostate and in the test on TK-10 renal was greater than 100 µM each time. The TGI in the test with IGROV1 ovarian, in the test with KM12 colon, with SK-MEL-2 melanoma, with U251 CNS, with MALME-3M melanoma and in the test with NCI-H23 lung was greater than 100 µM throughout.
On to `Cc1cc(Cl)nc2nc(Cl)c(N)cc12`, for which the TGI in the test with RPMI-8226 leukemia turned out to be 5.74 µM; in the test on OVCAR-5 ovarian, 34 µM; in the test with HCC-2998 colon, 3.59 µM; with HCT-116 colon, 5.92 µM; with DU-145 prostate, 18 µM; with TK-10 renal, 13.6 µM. Also, the TGI with IGROV1 ovarian is 22.9 µM; with KM12 colon, 17.8 µM; in the test on SK-MEL-2 melanoma it was 31.4 µM; with U251 CNS, 4.3 µM; with MALME-3M melanoma it was 29.3 µM; in the test on NCI-H23 lung it was 23.4 µM.
With `COC(=O)C1Cc2ccc(O)c(O)c2CN1` (stereo not given), the TGI in the test on RPMI-8226 leukemia is 68 µM; with OVCAR-5 ovarian, 70.3 µM; in the test on HCC-2998 colon it was greater than 100 µM; in the test on HCT-116 colon, 52.6 µM; in the test with DU-145 prostate, 81.2 µM; with TK-10 renal it was greater than 100 µM. Further, the TGI is greater than 100 µM in the test with IGROV1 ovarian; greater than 100 µM in the test with KM12 colon; 31.2 µM in the test with SK-MEL-2 melanoma; 31.2 µM in the test on U251 CNS; 98.7 µM in the test on MALME-3M melanoma; 31.8 µM in the test on NCI-H23 lung.
